# Source: patent US20020052295A1, “Diacyl derivatives of propylene diamine having herbicidal activity” (priority 1999, published 2002)
# What was measured:
# POROL = test: Pre-emergence herbicidal activity on POROL (common purslane); assay type: in vivo, Portulaca oleracea; details: greenhouse
# Method in brief: (§1)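 Seeds sown on sterilized fertilized topsoil and covered, then compound in organic solvent diluted with 50:50 acetone/water applied to soil surface; greenhouse at 30/21° C. day/night with 0.64 cm overhead irrigation. Percent inhibition versus untreated plants scored about 14 days after treatment; GR80 derived, highest rate typically 1000 g/ha.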
# PANMI = test: Pre-emergence herbicidal activity on PANMI (wild proso millet); assay type: in vivo, Panicum miliaceum; details: greenhouse
# Method in brief: as §1
# SETFA = test: Pre-emergence herbicidal activity on SETFA (giant foxtail); assay type: in vivo, Setaria faberi; details: greenhouse
# Method in brief: as §1
# SORVU = test: Pre-emergence herbicidal activity on SORVU (shattercane); assay type: in vivo, Sorghum vulgare; details: lowest tested rate giving 80% or greater inhibition, approx. 14 days after planting and treating, greenhouse
# Method in brief: as §1
# SOLNI = test: Pre-emergence herbicidal activity on SOLNI (black nightshade); assay type: in vivo, Solanum nigrum; details: greenhouse
# Method in brief: as §1
# DIGSA = test: Pre-emergence herbicidal activity on DIGSA (large crabgrass); assay type: in vivo, Digitaria sanguinalis; details: greenhouse
# Method in brief: as §1
# DATST = test: Pre-emergence herbicidal activity on DATST (jimsonweed); assay type: in vivo, Datura stramonium; details: greenhouse
# Method in brief: as §1
# ABUTH = test: Pre-emergence herbicidal activity on ABUTH (velvetleaf); assay type: in vivo, Abutilon theophrasti; details: greenhouse
# Method in brief: as §1
# ECHCG = test: Pre-emergence herbicidal activity on ECHCG (barnyardgrass); assay type: in vivo, Echinochloa crus-galli; details: lowest tested rate giving 80% or greater inhibition, approx. 14 days after planting and treating, greenhouse
# Method in brief: as §1
# CIRAR = test: Pre-emergence herbicidal activity on CIRAR (canada thistle, seedling); assay type: in vivo, Cirsium arvense; details: greenhouse
# Method in brief: as §1
# monocotyledonous species = test: Greenhouse post-emergence test in combination with glyphosate, monocotyledonous species; assay type: in vivo
# Source text: (§2) A pre-prepared topsoil mixture (described above) was placed in a pot and compacted to a depth of 1.0 to 1.25 cm from the top of the pot. Seeds of each of several monocotyledonous and dicotyledonous annual plant species were placed on top of the soil The seeds were covered with a mixture of 50% topsoil and 50% Rediearth™ in sufficient quantity to level-fill the pots. The pots were then placed on a greenhouse bench and subirrigated as needed until plants growing from the seeds had emerged and reached a suitable growth stage for post-emergence treatment, typically 9 to 14 days after planting.
# (§3) A known amount of each test compound dissolved or suspended in an appropriate organic solvent was diluted with a 50:50 mix of acetone and water and applied to the plants by spraying with a standard spray nozzle in a spray volume of 3,100 l/ha at a spray pressure of […] (30 psig). Control plants were not sprayed.
# (§4) After treatment the plants were placed in a greenhouse with a 30/21° C. day/night temperature regime and were subsequently watered as needed for growth. Approximately 14 days after treatment, the plants were observed and herbicidal efficacy recorded as percent inhibition by comparison with control plants.
# (§5) In a greenhouse post-emergence test conducted according to the procedure described hereinabove, R-2-fluoro-3-trifluoromethyl-N-[1-methyl-2-(3-trifluoromethyl)phenylcarbonylamino]ethylbenzamide (the compound of Example 13) was applied at 0, 64, 125 and 250 g/ha in combination with glyphosate isopropylammonium salt at 1000 g a.e./ha. The glyphosate herbicide alone gave 72% control of dicotyledonous species and 84% control of monocotyledonous species. […] At 250 g/ha, addition of the compound of Example 13 gave 93% control of dicotyledonous species, but reduced control of monocotyledonous species to 73%.
# AMARE = test: Pre-emergence herbicidal activity on AMARE (redroot pigweed); assay type: in vivo, Amaranthus retroflexus; details: greenhouse
# Method in brief: as §1
# dicotyledonous species = test: Greenhouse post-emergence test in combination with glyphosate, dicotyledonous species; assay type: in vivo
# Source text: as §2, §3, §4, §5
# BRAPP = test: Pre-emergence herbicidal activity on BRAPP (broadleaf signalgrass); assay type: in vivo, Brachiaria platyphylla; details: greenhouse
# Method in brief: as §1
# CONAR = test: Pre-emergence herbicidal activity on CONAR (field bindweed); assay type: in vivo, Convolvulus arvensis; details: greenhouse
# Method in brief: as §1
# SORHA = test: Pre-emergence herbicidal activity on SORHA (johnsongrass, seedling); assay type: in vivo, Sorghum halepense; details: greenhouse
# Method in brief: as §1
# [1] = test system: monocotyledonous and dicotyledonous annual plant species; test: Greenhouse pre-emergence test, all species of the test taken together; assay type: in vivo
# Source text: All such uses, and the biological activity enabling such uses, are embraced by the term “herbicidal” herein. […] Where herbicidal activity was evident but 80% inhibition was not achieved at the highest rate tested (typically 1000 g/ha), an asterisk (*) is shown in the following tables. Herbicidal activity evident in the form of symptoms of phytotoxicity, in the absence of at least 80% inhibition at any rate, is indicated in the tables by “phyto”. A blank cell in the following tables indicates no herbicidal or phytotoxic response at any rate tested.
# The pre-emergence tests were conducted by the following procedure. Topsoil was sieved to pass through a 1.27 cm screen. Fertilizer was added to the topsoil and the mixture was then sterilized by heating. The topsoil mixture was placed in a pot and compacted to a depth of 1.0 to 1.25 cm from the top of the pot. Seeds of each of several monocotyledonous and dicotyledonous annual plant species were placed on top of the soil. Additional soil was subsequently placed over the seeds to level-fill the pot. A known amount of each test compound dissolved or suspended in an appropriate organic solvent was diluted with a 50:50 mix of acetone and water and applied to the surface of the soil. After treatment the plants were placed in a greenhouse with a 30/21° C. day/night temperature regime where they received 0.64 cm of overhead irrigation. All subsequent watering consisted of a light overhead mist and/or subirrigation as needed for germination and growth.
# Pre-emergence herbicidal activity of the compound of Example 5, a racemic mixture of R- and S-enantiomers of N,N′-(1,2-propanediylbis)-3-(trifluoromethyl) benzamide, was compared with that of the individual R- and S-enantiomers, the compounds of Examples 5a and 5b respectively. The procedure was exactly as described above. Rates tested were 1000, 650, 300, 200, 100, 65, 30 and 10 g/ha.
# In a greenhouse pre-emergence test conducted according to the procedure described hereinabove, R—N,N′-(1,2-propanediylbis)-3-(trifluoromethyl)benzamide (the compound of Example 5a) was applied at 200 g/ha and acetochlor was applied at 100 g/ha, both individually and in combination.
# In the same greenhouse pre-emergence test, R-2-fluoro-3-trifluoromethyl-N-[1-methyl-2-(3-trifluoromethyl)phenylcarbonylamino]ethylbenzamide (the compound of Example 13) was applied at 100 g/ha and acetochlor was applied at 100 g/ha, both individually and in combination.
# CHEAL = test: Pre-emergence herbicidal activity on CHEAL (common lambsquarters); assay type: in vivo, Chenopodium album; details: greenhouse
# Method in brief: as §1
# PANDI = test: Pre-emergence herbicidal activity on PANDI (fall panicum); assay type: in vivo, Panicum dichotomiflorum; details: greenhouse
# Method in brief: as §1
# [2] = lowest tested rate giving 80% or greater inhibition, approx. 14 days after planting and treating
# [3] = Example 13 at 64 g/ha in combination with glyphosate isopropylammonium salt 1000 g a.e./ha
# [4] = Example 13 at 125 g/ha in combination with glyphosate isopropylammonium salt 1000 g a.e./ha
# [5] = Example 13 at 250 g/ha in combination with glyphosate isopropylammonium salt 1000 g a.e./ha
compound,measurement,setting,value
"C[C@H](CNC(=O)c1cccc(C(F)(F)F)c1)NC(=O)c1cccc(C(F)(F)F)c1F [Example 13, R-2-fluoro-3-trifluoromethyl-N-[1-methyl-2-(3-trifluoromethyl)phenylcarbonylamino]ethylbenzamide]","Percent control by pre-emergence application, POROL",POROL; applied alone at 100 g/ha,100%
same,Pre-emergence activity (GR80) on PORAL,POROL; [2],64 g/ha
same,"Percent control by pre-emergence application, PANMI",PANMI; applied alone at 100 g/ha,5%
same,Pre-emergence activity (GR80) on PANMI,PANMI; [2],500 g/ha
same,"Percent control by pre-emergence application, SETFA",SETFA; applied alone at 100 g/ha,25%
same,Pre-emergence activity (GR80) on SETFA,SETFA; [2],125 g/ha
same,Pre-emergence activity (GR80) on SORVU,SORVU,1000 g/ha
same,"Percent control by pre-emergence application, SOLNI",SOLNI; applied alone at 100 g/ha,45%
same,Pre-emergence activity (GR80) on SOLNI,SOLNI; [2],125 g/ha
same,"Percent control by pre-emergence application, DIGSA",DIGSA; applied alone at 100 g/ha,43%
same,Pre-emergence activity (GR80) on DIGSA,DIGSA; [2],125 g/ha
same,"Percent control by pre-emergence application, DATST",DATST; applied alone at 100 g/ha,12%
same,Pre-emergence activity (GR80) on DATST,DATST; [2],125 g/ha
same,"Percent control by pre-emergence application, ABUTH",ABUTH; applied alone at 100 g/ha,2%
same,Pre-emergence activity (GR80) on ABUTH,ABUTH; [2],250 g/ha
same,Pre-emergence activity (GR80) on ECHCG,ECHCG,500 g/ha
same,"Percent control by pre-emergence application, CIRAR",CIRAR; applied alone at 100 g/ha,25%
same,Pre-emergence activity (GR80) on CIRAR,CIRAR; [2],64 g/ha
same,control of monocotyledonous species,monocotyledonous species; [3],89%
same,control of monocotyledonous species,monocotyledonous species; [4],89%
same,control of monocotyledonous species,monocotyledonous species; [5],73%
same,"Percent control by pre-emergence application, AMARE",AMARE; applied alone at 100 g/ha,86%
same,Pre-emergence activity (GR80) on AMARE,AMARE; [2],64 g/ha
same,control of dicotyledonous species,dicotyledonous species; [3],85%
same,control of dicotyledonous species,dicotyledonous species; [4],95%
same,control of dicotyledonous species,dicotyledonous species; [5],93%
same,"Percent control by pre-emergence application, BRAPP",BRAPP; applied alone at 100 g/ha,4%
same,Pre-emergence activity (GR80) on BRAPP,BRAPP; [2],500 g/ha
same,"Percent control by pre-emergence application, CONAR",CONAR; applied alone at 100 g/ha,38%
same,Pre-emergence activity (GR80) on CONAR,CONAR; [2],750 g/ha
same,"Percent control by pre-emergence application, SORHA",SORHA; applied alone at 100 g/ha,7%
same,Pre-emergence activity (GR80) on SORHA,SORHA; [2],500 g/ha
same,herbicidal activity of the combination compared with expectation,"[1]; Example 13 100 g/ha + acetochlor 100 g/ha, at least on ABUTH, DATST, SOLNI and PANMI",greater than expected herbicidal activity
same,number of the 14 species showing >85% control,[1]; Example 13 100 g/ha in combination with acetochlor 100 g/ha,10
same,number of the 14 species showing >85% control,[1]; Example 13 alone at 100 g/ha,3
same,"Percent control by pre-emergence application, CHEAL",CHEAL; applied alone at 100 g/ha,95%
same,Pre-emergence activity (GR80) on CHEAL,CHEAL; [2],64 g/ha
same,"Percent control by pre-emergence application, PANDI",PANDI; applied alone at 100 g/ha,40%
same,Pre-emergence activity (GR80) on PANDI,PANDI; [2],250 g/ha
